The subject of one data set is dengue virus type 2. Briefly: Antiviral activity against Dengue virus 2 DN454009A infected in human HuH7 cells assessed as inhibition of viral RNA level measured 72 hrs post infection by qRT-PCR method. To be noted: Huh-7, 72 h. The format is functional, organism-based.
Data set [1] in a line: Cytotoxicity against human HuH7 cells assessed as reduction in cell viability after 72 hrs by MTS assay. The format is cell-based, Huh-7.
The nature of data set [2]: Selectivity index, ratio of CC50 for human HuH7 cells to EC50 for Dengue virus 2 DN454009A infected in human HuH7 cells. To be noted: read-out: Ratio CC50/EC50. The format is toxicity, cell-based, Huh-7.
The next data set concerns dengue virus type 1. The data set can be described thus: Antiviral activity against Dengue virus 1 DN8700828 infected in human HuH7 cells assessed as inhibition of viral RNA level measured 72 hrs post infection by qRT-PCR method. The format is functional, organism-based. The settings on record: DN8700828, Huh-7, 72 h. (In qPCR the cycle at which signal appears reflects the starting amount.)

For another data set, the system named is dengue virus type 3. The data set can be described thus: Antiviral activity against Dengue virus 3 DN8700829A infected in human HuH7 cells assessed as inhibition of viral RNA level measured 72 hrs post infection by qRT-PCR method. It counts as functional, organism-based. To be noted: Huh-7, 72 h.
The test system of a further data set is dengue virus type 4. Briefly: Antiviral activity against Dengue virus 4 S9201818 infected in human HuH7 cells assessed as inhibition of viral RNA level measured 72 hrs post infection by qRT-PCR method. The format is functional, organism-based. To be noted: S9201818, Huh-7, 72 h.

What is called EC50 is the concentration giving half of the maximal effect. As a reminder, the CC50 is the concentration giving 50% cytotoxicity. As to `CC(C)(O)CC[C@@H](O)[C@](C)(O)[C@H]1CC[C@@]2(O)C3=CC(=O)[C@@H]4C[C@@H](O)[C@@H](O)C[C@]4(C)[C@H]3CC[C@]12C` [20-HYDROXYECDYSONE], in the data set with dengue virus type 2, the EC50 came out at 53.6 µM. The CC50 at 72 h in data set [1] is greater than 700 µM. The selectivity ratio in data set [2] was greater than 13.1.
For `CC(C)CC[C@@H](O)[C@](C)(O)[C@H]1CC[C@@]2(O)C3=CC(=O)[C@@H]4C[C@@H](O)[C@@H](O)C[C@]4(C)[C@H]3[C@H](O)C[C@]12C`, the EC50 in the data set with dengue virus type 2 was determined as 10.1 µM; in the data set on dengue virus type 1, 15.7 µM; in the data set with dengue virus type 3, 9.48 µM; with dengue virus type 4, 12.2 µM. For the same compound, the CC50 at 72 h in data set [1] is greater than 700 µM. Further, the selectivity ratio in data set [2] was greater than 69.7.
`C[C@@]1(O)[C@H](O)[C@@H](CO)O[C@H]1n1ccc(N)nc1=O`: in the data set on dengue virus type 2, the EC50 worked out at 11.2 µM. The CC50 at 72 h in data set [1] stood at 94.8 µM. For the same compound, the selectivity ratio in data set [2] is greater than 8.5.
For `CC(C)(O)CC[C@@H](O)[C@](C)(O)[C@H]1CC[C@@]2(O)C3=CC(=O)[C@@H]4C[C@@H](O)[C@@H](O)C[C@]4(C)[C@H]3[C@H](O)C[C@]12C` [TURKESTERONE], in that order: 38.1 µM, greater than 700 µM and greater than 18.3.
For the compound `CC(C)CC[C@@H](O)[C@](C)(O)[C@H]1CC[C@@]2(O)C3=CC(=O)[C@@H]4C[C@@H](O)[C@@H](O)C[C@]4(C)[C@H]3CC[C@]12C` [PONASTERONE A], the EC50 in the data set on dengue virus type 2 is greater than 100 µM. Besides, the CC50 at 72 h in data set [1] was greater than 700 µM.
Regarding `CC(=O)O[C@@H]1C[C@H]2C(=O)C=C3[C@H](CC[C@]4(C)[C@@H]([C@@](C)(O)[C@H](O)CCC(C)(C)O)CC[C@@]34O)[C@@]2(C)C[C@@H]1O`, in the data set with dengue virus type 2, the EC50 was 87.3 µM. For the same compound, the CC50 at 72 h in data set [1] is greater than 700 µM. In addition, the selectivity ratio in data set [2] was greater than 8.
With `CC(CO)CC[C@@H](O)[C@](C)(O)[C@H]1CC[C@@]2(O)C3=CC(=O)[C@@H]4C[C@@H](O)[C@@H](O)C[C@]4(C)[C@H]3CC[C@]12C` (some centres not stated) [INOKOSTERONE], the EC50 in the data set on dengue virus type 2 is greater than 100 µM. In data set [1], the CC50 at 72 h was greater than 700 µM.
For `C[C@H]([C@H](O)CCC(C)(C)O)[C@H]1CC[C@@]2(O)C3=CC(=O)[C@@H]4C[C@@H](O)[C@@H](O)C[C@]4(C)[C@H]3CC[C@]12C` [ECDYSONE], the EC50 in the data set on dengue virus type 2 was 54.3 µM. For the same compound, in data set [1], the CC50 at 72 h is greater than 700 µM. Also, the selectivity ratio in data set [2] was greater than 12.9.
In the same order, the values of `CC(=O)OC(C)(C)CC[C@@H](O)[C@](C)(O)[C@H]1CC[C@@]2(O)C3=CC(=O)[C@@H]4C[C@@H](O)[C@@H](O)C[C@]4(C)[C@H]3[C@H](O)C[C@]12C` are 19.6 µM, greater than 700 µM and greater than 36.7.
For `CC(=O)OC(C)(C)CC[C@@H](O)[C@](C)(O)[C@H]1CC[C@@]2(O)C3=CC(=O)[C@@H]4C[C@@H](O)[C@@H](O)C[C@]4(C)[C@H]3CC[C@]12C`, in that order: 39.8 µM, greater than 700 µM and greater than 17.6.
In the case of `C=C(C[C@@H](O)[C@](C)(O)[C@H]1CC[C@@]2(O)C3=CC(=O)[C@@H]4C[C@@H](O)[C@@H](O)C[C@]4(C)[C@H]3CC[C@]12C)C(C)(C)O`, the EC50 with dengue virus type 2 was greater than 100 µM. The CC50 at 72 h in data set [1] is greater than 700 µM.
In the same order, the values of `CC(C)(O)CC[C@@H](O)[C@](C)(O)[C@H]1CC[C@@]2(O)C3=CC(=O)[C@@H]4C[C@@H](O)CC[C@]4(C)[C@H]3CC[C@]12C` are greater than 100 µM and greater than 700 µM.
In the same order, the values of `C[C@H](O)[C@H]1CC[C@@]2(O)C3=CC(=O)[C@@H]4C[C@@H](O)[C@@H](O)C[C@]4(C)[C@H]3CC[C@]12C` are greater than 100 µM and greater than 700 µM.

The values above are taken from ChEMBL document CHEMBL3792388, “Ecdysones from Zoanthus spp. with inhibitory activity against dengue virus 2” (Bioorg Med Chem Lett, 2016).
